{"source": "patent US10087194B2", "about": "“Podophyllotoxin derivatives and their use” (California Pacific Medical Center, priority 2015, dated 2018)", "key": {"[1]": {"assay": "Toxicity studies in Cynomolgus monkeys (MTD)", "type": "in vivo"}, "[2]": {"system": "HCT116 human colon cancer xenograft", "assay": "Subcutaneous HCT116 human colon cancer xenograft model", "type": "in vivo, Mus Musculus", "settings": "for TGI: HCT116, day 29", "protocol": "Each mouse was inoculated subcutaneously with 5×10^6 HCT116 tumor cells in 0.1 ml PBS for tumor development. Treatments were started when the tumor volume reached 100 mm^3. […] Body weight and tumor volume were measured twice a week."}, "Rat MTD study": {"assay": "Rat MTD study", "type": "in vivo, Sprague-Dawley rats", "protocol": "In the rat MTD study, Sprague-Dawley rats were dosed with 801 HCl at a concentration of 6 mg/ml via intravenous infusion or slow intravenous injection. The MTD of 801 in normal rats was 120 mg/kg/day. In the 7-day repeating dose study, the rats were administered with […] via BID slow IV injection for 7 days."}, "[3]": {"system": "K562 human chronic myeloid leukemia xenograft", "assay": "Subcutaneous K562 human chronic myeloid leukemia xenograft model"}, "[4]": {"system": "COLO205 human colon cancer xenograft", "assay": "Subcutaneous COLO205 human colon cancer xenograft model", "type": "in vivo, Mus Musculus", "protocol": "Each mouse was inoculated subcutaneously with 5×10^6 COLO205 tumor cells in 0.1 ml PBS for tumor development. Treatments were started when the tumor volume reached 120 mm^3. […] Body weight and tumor volume were measured twice a week."}, "[5]": {"assay": "Toxicity study (MTD) in normal mice", "settings": "single i.p. injection; C3H female normal mice; checked daily for 40 days (MTD40)"}, "[6]": {"system": "VM46 Human Colon Cancer Cells Overexpressing Multi-drug Resistant Gene 1", "assay": "Colony formation assay, VM46", "type": "cell-based", "settings": "read-out: IC50 (VM46)", "protocol": "(§1) Cancer cells were plated in 60 mm Petri dishes containing 2.7 ml of medium (modified McCoy's 5a medium containing 10% fetal bovine serum and 100 units/ml penicillin and 100 ug/ml streptomycin). The cells were incubated in a CO2 incubator at 37 degree C. for 5 hours for attachment to the bottom of Petri dishes. Drugs were made up fresh in medium at ten times the final concentration, and then 0.3 ml of this stock solution was added to the 2.7 ml of medium in the dish. The cells were then incubated with drugs for 72 hours at 37 degree C. At the end of incubation the drug-containing media were decanted, the dishes were rinsed with 4 ml of Hank's Balance Salt Solution (HBSS), 5 ml of fresh medium was added, and the dishes were returned to the incubator for colony formation. The cell colonies were counted using colony counter after incubation for 7 days (HCT116 cell line), 14 days (VM46 cell line) and 15 days (H23 cell line). Cell survival (%) was calculated from 3 repeated dishes for each drug concentration and the mean values of IC50 (the drug concentration producing 50% inhibition of colony formation) were determined for each tested compound."}, "[7]": {"system": "HCT116 Human Colon Cancer Cells", "assay": "Colony formation assay, HCT116", "type": "cell-based", "protocol": "as §1"}, "[8]": {"system": "H23 Human Non-small Cell Lung Cancer Cells", "assay": "Colony formation assay, H23", "type": "cell-based", "settings": "read-out: IC50 (H23)", "protocol": "as §1"}, "[9]": {"system": "HCT116 human colon cancer xenografts", "assay": "Preliminary in vivo efficacy, HCT116 xenografts in nude mice", "design": "species or system nude mice (nu/nu genotype)", "settings": "single i.p. injection at i.p. MTD doses", "protocol": "In vivo anticancer efficacy study was performed on nude mice (nu/nu genotype) bearing HCT116 human colon cancer xenografts. These human tumors grew exponentially following implantation into the flanks of the mice and reached an average tumor volume of 79.85 cu. mm. Treatment was initiated at that time, with the first day of treatment designated as day 0 for all calculations and plots. The 6 mice were injected i.p. with each of four Neovia drug solutions (5% alcohol, 5% Cremophor EL, and 90% saline, 0.5 ml/20 g, single injection). Drug doses (i.p. MTD doses) were 120 mg/kg for Neovia-1, 300 mg/kg for Neovia-2, 120 mg/kg for Neovia-3, and 180 mg/kg for Neovia-4. Control group of mice was treated with vehicle alone. After treatment, tumor sizes were measured by caliper every other day. The measurement of the tumor diameters (d1, d2) in two orthogonal directions was used to calculate the tumor volume (tumor volume=π/6 {(d1+d2)/2}3) using the approximation that the tumors are spherical. Each tumor growth curve for each mouse was plotted. The time (days) required to grow the tumor to the size of 800 cu. mm after various treatments was calculated as tumor growth delay indexes for evaluating the treatment effects. Survival times after treatment was also observed and recorded."}, "in vivo": {"assay": "in vivo", "settings": "female, C3H, mouse, ip"}, "[10]": {"settings": "Homo sapiens, drugs 72 hours, colonies counted after 14 days"}, "[11]": {"settings": "Homo sapiens, HCT-116, drugs 72 hours, colonies counted after 7 days, read-out: IC50 (HCT116)"}, "[12]": {"settings": "Homo sapiens, drugs 72 hours, colonies counted after 15 days"}}, "note": "Read-outs that look alike come from different tables or passages of the source.", "data": [{"smiles": "CCC1(OC(=O)COc2ccc(C(=O)OC3c4cc5c(cc4C(c4cc(OC)c(OC)c(OC)c4)C4C(=O)OCC34)OCO5)cc2)C(=O)OCc2c1cc1n(c2=O)Cc2cc3cc(OC(=O)N4CCC(N5CCCCC5)CC4)ccc3nc2-1.Cl", "note": "(centres unmarked) [Compound 801-HCl]", "values": [{"measurement": "MTD for repeating dosing", "setting": "[1]; 5-day repeat dose, intravenous infusion", "result": 30, "unit": "mg/kg/day"}, {"measurement": "MTD", "setting": "[1]; intravenous infusion twice daily with a 5-hour interval", "result": 60, "unit": "mg/kg/day"}, {"measurement": "TGI", "setting": "[2]; 125 mg/kg i.p. q3d x 3", "result": 93, "unit": "%"}, {"measurement": "MTD", "setting": "Rat MTD study; normal Sprague-Dawley rats, 6 mg/ml via intravenous infusion or slow intravenous injection", "result": 120, "unit": "mg/kg/day"}, {"measurement": "Mean Tumor Volume", "setting": "[3]; 300 mg/kg ip Days 8, 11, 14, Day 8", "result": "159 ± 16", "unit": "mm^3"}, {"measurement": "Mean Tumor Volume", "setting": "[3]; 300 mg/kg ip Days 8, 11, 14, Day 11", "result": "221 ± 27", "unit": "mm^3"}, {"measurement": "Mean Tumor Volume", "setting": "[3]; 300 mg/kg ip Days 8, 11, 14, Day 14", "result": "164 ± 16", "unit": "mm^3"}, {"measurement": "Mean Tumor Volume", "setting": "[3]; 300 mg/kg ip Days 8, 11, 14, Day 18", "result": "47 ± 7", "unit": "mm^3"}, {"measurement": "Mean Tumor Volume", "setting": "[3]; 300 mg/kg ip Days 8, 11, 14, Day 21", "result": "39 ± 6", "unit": "mm^3"}, {"measurement": "Mean Tumor Volume", "setting": "[3]; 300 mg/kg ip Days 8, 11, 14, Day 25", "result": "74 ± 12", "unit": "mm^3"}, {"measurement": "Mean Tumor Volume", "setting": "[3]; 300 mg/kg ip Days 8, 11, 14, Day 28", "result": "95 ± 19", "unit": "mm^3"}, {"measurement": "maximum BW loss", "setting": "[3]; 300 mg/kg ip, next day after the 2nd dosing", "result": 7.7, "unit": "%"}, {"measurement": "TGI (Day 25)", "setting": "[3]; K562, 300 mg/kg ip Days 8, 11, 14", "result": 98, "unit": "%"}, {"measurement": "CR ratio (ratio of complete regression)", "setting": "[3]; K562, 300 mg/kg ip Days 8, 11, 14, by Day 21", "result": "3/8"}, {"measurement": "TGI", "setting": "[4]; 125 mg/kg i.p. q3d x 3, day 29", "result": 70, "unit": "%"}, {"measurement": "MTD Values", "setting": "[5]", "result": 300, "unit": "mg/kg"}]}, {"smiles": "CCC1(OC(=O)COc2ccc(C(=O)OC3c4cc5c(cc4C(c4cc(OC)c(OC)c(OC)c4)[C@H]4C(=O)OC[C@@H]34)OCO5)cc2)C(=O)OCc2c1cc1n(c2=O)Cc2cc3c(CN(C)C)c(O)ccc3nc2-1", "note": "(some centres unmarked) [Compound N1]", "values": [{"measurement": "IC50", "setting": "[6]; [10]", "result": 0.008, "unit": "µM"}, {"measurement": "IC50", "setting": "[7]; [11]", "result": 0.0242, "unit": "µM"}, {"measurement": "IC50", "setting": "[8]; [12]", "result": 0.00705, "unit": "µM"}]}, {"smiles": "CCC1(OC(=O)COc2ccc(C(=O)OC3c4cc5c(cc4C(c4cc(OC)c(OC)c(OC)c4)C4C(=O)OCC34)OCO5)cc2)C(=O)OCc2c1cc1n(c2=O)Cc2cc3cc(OC(=O)N4CCC(N5CCCCC5)CC4)ccc3nc2-1", "note": "(centres unmarked) [Compound N2]", "values": [{"measurement": "IC50", "setting": "[6]; drugs 72 hours, colonies counted after 14 days", "result": "~0.52", "unit": "µM"}, {"measurement": "inhibiting the growth of HCT116 human colon cancer xenografts", "setting": "[9]", "result": "most promising candidate drug against HCT116 human colon cancer among all 4 compounds"}, {"measurement": "IC50", "setting": "[7]; drugs 72 hours, colonies counted after 7 days, read-out: IC50 (HCT116)", "result": "> 0.5", "unit": "µM"}, {"measurement": "MTD for repeating dosing", "setting": "Rat MTD study; rats, BID slow IV injection for 7 days", "result": 60, "unit": "mg/kg/day"}, {"measurement": "IC50", "setting": "[8]; drugs 72 hours, colonies counted after 15 days", "result": 0.462, "unit": "µM"}, {"measurement": "MTD Values", "setting": "[5]", "result": 300, "unit": "mg/kg"}]}, {"smiles": "CCc1c2c(nc3ccc(OC(=O)N4CCC(N5CCCCC5)CC4)cc13)-c1cc3c(c(=O)n1C2)COC(=O)C3(CC)OC(=O)COc1ccc(C(=O)OC2c3cc4c(cc3C(c3cc(OC)c(OC)c(OC)c3)[C@H]3C(=O)OC[C@@H]23)OCO4)cc1", "note": "(some centres unmarked) [Compound N3]", "values": [{"measurement": "IC50", "setting": "[6]; Homo sapiens", "result": 0.3, "unit": "µM"}, {"measurement": "IC50", "setting": "[7]; Homo sapiens, HCT-116, read-out: IC50 (HCT116)", "result": 0.283, "unit": "µM"}, {"measurement": "IC50", "setting": "[8]; Homo sapiens", "result": 0.2, "unit": "µM"}]}, {"smiles": "CCc1c2c(nc3ccc(O)c(CN(C)C)c13)-c1cc3c(c(=O)n1C2)COC(=O)C3(CC)OC(=O)COc1ccc(C(=O)OC2c3cc4c(cc3C(c3cc(OC)c(OC)c(OC)c3)[C@H]3C(=O)OC[C@@H]23)OCO4)cc1", "note": "(some centres unmarked) [Compound N4]", "values": [{"measurement": "MTD", "setting": "in vivo", "result": 250, "unit": "mg/kg"}, {"measurement": "IC50", "setting": "[6]; [10]", "result": 0.005, "unit": "µM"}, {"measurement": "IC50", "setting": "[7]; [11]", "result": 0.0066, "unit": "µM"}, {"measurement": "IC50", "setting": "[8]; [12]", "result": 0.0129, "unit": "µM"}]}, {"smiles": "CCc1c2c(nc3ccc(OC(=O)N4CCC(N5CCCCC5)CC4)cc13)-c1cc3c(c(=O)n1C2)COC(=O)[C@]3(O)CC", "note": "[Irinotecan]", "values": [{"measurement": "TGI", "setting": "[2]; 70 mg/kg i.p. q3d x 3", "result": 92, "unit": "%"}, {"measurement": "body weight loss", "setting": "[2]; HCT116 model, during the treatment period", "result": 8, "unit": "%"}, {"measurement": "TGI", "setting": "[4]; 70 mg/kg i.p. q3d x 3, day 29", "result": 97, "unit": "%"}]}, {"smiles": "CCC1(OC(=O)COc2ccc(C(=O)OC3c4cc5c(cc4C(c4cc(OC)c(OC)c(OC)c4)C4C(=O)OCC34)OCO5)cc2)C(=O)OCc2c1cc1n(c2=O)Cc2cc3c(CN(C)C)c(O)ccc3nc2-1.Cl", "note": "(centres unmarked) [N1 HCL Salt]", "values": [{"measurement": "MTD Values", "setting": "[5]", "result": 120, "unit": "mg/kg"}]}, {"smiles": "CCc1c2c(nc3ccc(OC(=O)N4CCC(N5CCCCC5)CC4)cc13)-c1cc3c(c(=O)n1C2)COC(=O)C3(CC)OC(=O)COc1ccc(C(=O)OC2c3cc4c(cc3C(c3cc(OC)c(OC)c(OC)c3)C3C(=O)OCC23)OCO4)cc1.Cl", "note": "(centres unmarked) [N3 HCL Salt]", "values": [{"measurement": "MTD Values", "setting": "[5]", "result": 144, "unit": "mg/kg"}]}, {"smiles": "CCc1c2c(nc3ccc(O)c(CN(C)C)c13)-c1cc3c(c(=O)n1C2)COC(=O)C3(CC)OC(=O)COc1ccc(C(=O)OC2c3cc4c(cc3C(c3cc(OC)c(OC)c(OC)c3)C3C(=O)OCC23)OCO4)cc1.Cl", "note": "(centres unmarked) [N4 HCL Salt]", "values": [{"measurement": "MTD Values", "setting": "[5]", "result": 180, "unit": "mg/kg"}]}]}
